Measurements taken from ChEMBL document CHEMBL3864171, “Pyridyl Isonicotinamide Inhibitors of RAF Kinase” (ACS Med Chem Lett, 2016).

These molecules were tested against RAF proto-oncogene serine/threonine-protein kinase (Homo sapiens, UniProt P04049) (assay: Inhibition of 1 to 324 residues truncated c-Raf (unknown origin) expressed in baculovirus infected Sf9 insect cells using full length biotinylated MEK1 ATP binding site K97R mutant as substrate preincubated for 60 mins followed by ATP addition measured after 1 hr by alpha screen assay).
Chain of RAF proto-oncogene serine/threonine-protein kinase (P04049 whole entry, the tested form may be a part): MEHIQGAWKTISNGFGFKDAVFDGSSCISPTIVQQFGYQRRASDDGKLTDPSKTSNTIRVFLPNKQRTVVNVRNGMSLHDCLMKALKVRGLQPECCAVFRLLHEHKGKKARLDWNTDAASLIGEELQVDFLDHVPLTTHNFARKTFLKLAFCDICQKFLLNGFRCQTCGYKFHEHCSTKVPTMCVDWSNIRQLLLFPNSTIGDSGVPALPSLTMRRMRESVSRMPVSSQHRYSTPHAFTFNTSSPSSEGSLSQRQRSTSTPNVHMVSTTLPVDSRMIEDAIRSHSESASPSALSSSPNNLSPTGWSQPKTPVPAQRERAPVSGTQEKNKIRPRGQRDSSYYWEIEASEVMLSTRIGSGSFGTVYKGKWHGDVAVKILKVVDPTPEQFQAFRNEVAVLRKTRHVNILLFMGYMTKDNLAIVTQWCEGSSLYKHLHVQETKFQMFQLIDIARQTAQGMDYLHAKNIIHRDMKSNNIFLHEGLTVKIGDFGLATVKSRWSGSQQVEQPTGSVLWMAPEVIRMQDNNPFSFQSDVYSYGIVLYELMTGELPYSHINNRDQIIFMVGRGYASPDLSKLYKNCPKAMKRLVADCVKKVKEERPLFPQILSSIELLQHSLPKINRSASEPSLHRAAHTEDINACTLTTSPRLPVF
For `Cc1ccc(NC(=O)c2ccnc(C(F)(F)F)c2)cc1-c1cc(OCCOP(=O)(O)O)nc(N2CCOC[C@H]2C)c1`, the IC50 was 2 nM. With `Cc1ccc(NC(=O)c2cc(C(F)(F)F)ccn2)cc1-c1cc(OCC(O)CP(=O)(O)O)nc(N2CCOCC2)c1` (stereo unspecified) the IC50 was 0.024 nM. With `Cc1ccc(NC(=O)c2ccnc(C(F)(F)F)c2)cc1-c1cc(OCCOP(=O)(O)O)nc(N2CCOCC2)c1` the IC50 was 0.1 nM. `Cc1ccc(NC(=O)c2ccnc(C(C)(F)F)c2)cc1-c1cc(OCCOP(=O)(O)O)nc(N2CCOC[C@H]2C)c1` was tested, and the IC50 was 0.1 nM. `Cc1ccc(NC(=O)c2cccc(C(F)(F)F)c2)cc1-c1cc(OCCOP(=O)(O)O)nc(N2CCOC[C@H]2C)c1` gave an IC50 of 6 nM. Work on `Cc1ccc(NC(=O)c2ccnc(C(F)(F)F)c2)cc1-c1cnc(OCCOP(=O)(O)O)c(N2CCOCC2)c1` yielded an IC50 of 0.03 nM.
